Assay results reported in paper PMC12368479, “Inhibition of the Clathrin Terminal Domain—Amphiphysin Protein–Protein Interaction. Probing the Pitstop 2 Aromatic Moiety” (Chemmedchem, 2025).
Where “and” joins values, the source holds several entries; their conditions need not be identical. Equal values may be shown once. Read-outs that look alike come from different tables or passages of the source.

Columns and labels:
[1] = test system: transferrin uptake (CME) in U2OS osteosarcoma cells; experiment: Clathrin-mediated endocytosis assay: transferrin (Tfn) uptake in U2OS cells; type: cell-based; conditions: for IC50 / inhibition at 5 µM / inhibition at 50 µM: Homo sapiens, U2OS; for IC50: Table 5, inhibition of transferrin‐red uptake in U2OS cells, '–'/NA = not active at 100 μM; for inhibition at 5 µM: read-out: 2-point CME (% Inhibition) 5 µM; for inhibition at 50 µM: read-out: 2-point CME (% Inhibition) 50 µM
Procedure: Using our previously reported CME assay in U2OS cells, the ability of these compounds to block endocytosis was examined (Table 5 ).^[ [48], [49] ^]
CME was examined by a high‐throughput, quantitative assay for measuring transferrin (Tfn) uptake in U2OS osteosarcoma cells, based on methods described previously.^[ [48] ^]
Compounds were made up fresh from powder stock just prior to commencing the assay, and stock solutions were stored at −20 °C for several months.

[2] = target: T1, clathrin heavy chain NTD (amino acids 1–364) – amphiphysin 1 B/C domain protein–protein interaction (NTD‐PPI) (Homo sapiens, UniProt Q00610); experiment: ELISA-based clathrin inhibitor binding assay (NTD-PPI)
T1 construct: GST‐tagged clathrin heavy chain NTD (amino acids 1–364); made in house
T1 sequence (Q00610 1-364): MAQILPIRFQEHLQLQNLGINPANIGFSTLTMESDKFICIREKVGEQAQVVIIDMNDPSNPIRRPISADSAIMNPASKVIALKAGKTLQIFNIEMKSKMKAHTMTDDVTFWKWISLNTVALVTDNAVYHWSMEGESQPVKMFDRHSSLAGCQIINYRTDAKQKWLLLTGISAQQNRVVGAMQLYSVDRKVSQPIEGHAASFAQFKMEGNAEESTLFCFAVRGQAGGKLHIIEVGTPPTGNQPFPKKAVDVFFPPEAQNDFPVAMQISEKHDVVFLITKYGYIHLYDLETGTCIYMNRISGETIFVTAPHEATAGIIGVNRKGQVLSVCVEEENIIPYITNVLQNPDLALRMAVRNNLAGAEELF
Procedure: The clathrin inhibitor assay was based inhibition of protein–protein interaction (PPI) between clathrin and amphiphysin as described in our previous report.^[ [45], [54] ^] Bacterially expressed recombinant purified His6‐tagged amphiphysin 1 B/C domain (which comprises both the clathrin and the AP‐2 binding sites, amino acids 250‐578^[ [55] ^]) in screening buffer (20 mM HEPES, pH 7.4, 50 mM NaCl, 1 mM DTT, 1 mM PMSF) was added to a 384 well ELISA plate (Corning Maxisorp 3700) and bound to the plastic for 1 h at room temperature. […] Following extensive washes (with 20 mM HEPES, pH 7.4, 50 mM NaCl, 0.05% Tween 20), chemical compounds diluted in DMSO (10 μL) were added and incubated together with bacterially expressed recombinant GST‐tagged clathrin heavy chain NTD (amino acids 1–364) for 1 h at room temperature in screening buffer. After 3 washes, horseradish peroxidase‐coupled anti‐GST antibodies were added in screening buffer and the plate incubated for 40 min at room temperature. Following additional washes, 50 μL TMB (3,3′,5,5′‐tetramethylbenzidine) (Pierce Biotechnology) chromogenic substrate of horseradish peroxidase was added, and the plate was incubated for 10 min before the reaction was terminated by adding 50 μL 1N sulfuric acid to produce a yellow colour. The amount of bound protein was determined by spectrophotometric measurement in a plate reader. Relative binding was calculated as a percentage of DMSO control.

[3] = target: T2, full length human Dynamin I (Homo sapiens, UniProt Q05193); experiment: Dynamin GTPase activity, Malachite Green phosphate detection assay; type: biochemical
T2 construct: full length human Dynamin I expressed in Sf21 insect cells; made in house; host or cells: Sf21 insect cells
T2 sequence (Q05193 1-864): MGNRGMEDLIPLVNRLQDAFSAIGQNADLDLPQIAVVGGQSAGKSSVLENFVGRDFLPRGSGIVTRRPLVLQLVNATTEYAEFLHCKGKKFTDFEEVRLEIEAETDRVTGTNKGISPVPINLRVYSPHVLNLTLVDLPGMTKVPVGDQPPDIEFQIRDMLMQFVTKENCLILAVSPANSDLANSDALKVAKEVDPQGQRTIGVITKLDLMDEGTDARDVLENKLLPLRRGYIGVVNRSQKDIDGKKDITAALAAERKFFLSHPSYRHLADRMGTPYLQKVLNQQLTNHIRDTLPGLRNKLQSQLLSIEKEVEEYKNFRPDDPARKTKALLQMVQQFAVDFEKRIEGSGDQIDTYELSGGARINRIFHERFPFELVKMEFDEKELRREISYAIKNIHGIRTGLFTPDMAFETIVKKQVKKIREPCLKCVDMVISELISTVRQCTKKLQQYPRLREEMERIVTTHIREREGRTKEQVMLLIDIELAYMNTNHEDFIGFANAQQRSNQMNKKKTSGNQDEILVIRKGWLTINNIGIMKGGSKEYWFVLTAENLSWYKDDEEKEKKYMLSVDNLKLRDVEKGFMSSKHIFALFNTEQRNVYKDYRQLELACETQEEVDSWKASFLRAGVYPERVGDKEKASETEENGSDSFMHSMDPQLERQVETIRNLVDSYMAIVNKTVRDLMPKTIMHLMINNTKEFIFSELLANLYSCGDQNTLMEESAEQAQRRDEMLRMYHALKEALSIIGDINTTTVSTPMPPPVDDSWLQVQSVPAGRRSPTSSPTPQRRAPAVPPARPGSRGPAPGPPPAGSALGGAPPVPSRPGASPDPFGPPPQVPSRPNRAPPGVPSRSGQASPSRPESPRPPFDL
Procedure: Dynamin GTPase activity was determined in vitro using the Malachite Green phosphate detection absorbance‐based assay within a 96‐well plate format as described previously. The enzyme source was full length human Dynamin I expressed in Sf21 insect cells and affinity‐purified on GST‐Amph2‐SH3 (rat Amphiphysin 2 (494–588)).^[ [56] ^]

[4] = Table 5, ELISA, read-out: NTD‐PPI IC50
[5] = Table 5, dynamin GTPase, n = 1 or n = 2 as footnoted, NA = not active at 100 μM, read-out: Dynamin 1 IC50
[6] = Table S1, preliminary (n=1) unless otherwise noted, NA = not active, includes IC50 > 150 μM, read-out: Dynamin 1 IC50
[7] = Table 4, library 4, ELISA, average of duplicate measurements (n = 2), read-out: NTD‐PPI IC50
[8] = Table 4, library 4, n = 1 or n = 2 as footnoted, '–' = not active at 100 μM, read-out: Dynamin 1 IC50
[9] = Table S1, average of duplicate measurements (n=2), read-out: NTD-PPI IC50

SMILES | IC50 [1] [µM] | IC50 [2, 4] [µM] | inhibition at 5 µM [1] [%] | inhibition at 50 µM [1] [%] | IC50 [3, 6] [µM] | IC50 [2, 7] [µM] | IC50 ([2]; read-out: NTD‐PPI IC50 (ELISA)) | IC50 [3, 8] [µM] | other results
O=C1N=C(NS(=O)(=O)c2cccc3ccccc23)SC1=Cc1ccc(-c2ccccc2)cc1 [compound 18, N‐(5‐([1,1'‐biphenyl]‐4‐ylmethylene)‐4‐oxo‐4,5‐dihydrothiazol‐2‐yl)naphthalene‐1‐sulfonamide] | ~43.1 | 1.4 | – | – | – | – | – | – | IC50 ([3]; Table 1, library 1, n = 1 unless noted (19: n = 2), '–' = not active at 150 μM, read-out: Dyn 1 IC50): 85 µM; IC50 [3, 5]: 85.3 µM
CCCC/C=C1\SC(NS(=O)(=O)c2cccc3ccccc23)=NC1=O [compound 42, (Z)‐N‐(4‐oxo‐5‐pentylidene‐4,5‐dihydrothiazol‐2‐yl)naphthalene‐1‐sulfonamide] | – | – | 0 | 31 | > 150 | – | – | – | IC50 ([2]; Table 3, library 3, ELISA, average of duplicate measurements (n = 2), read-out: NTD‐PPI IC50): 6.5 µM; IC50 ([3]; Table 3, library 3, n = 1 unless otherwise stated (41, 42: n = 2), '–' = not active at 100 μM, read-out: Dynamin 1 IC50): > 100 µM
O=C1N=C(NS(=O)(=O)c2cccc3ccccc23)S/C1=C\c1ccc2c(c1)OCCO2 [compound 54, (Z)‐N‐(5‐((2,3‐dihydrobenzo[b][1,4]dioxin‐6‐yl)methylene)‐4‐oxo‐4,5‐dihydrothiazol‐2‐yl)naphthalene‐1‐sulfonamide] | ~35 | 1.2 | – | – | – | 1.2 | 1.16 µM | 60.1 ± 8.6 | CME activity compared with Pitstop 2 ([1]; U2OS cells, in words): threefold decrease; fold activity increase (NTD‐PPI) relative to 56 ([2]; ELISA): > 3 fold; IC50 [3, 5]: 60.1 ± 8.6 µM; IC50 ([3]; values quoted in running text (section 2.2), read-out: Dynamin IC50): 60 µM
O=C1N=C(NS(=O)(=O)c2cccc3ccccc23)S/C1=C\c1ccc2c(c1)OCO2 [compound 56, (Z)‐N‐(5‐(benzo[d][1,3]dioxol‐5‐ylmethylene)‐4‐oxo‐4,5‐dihydrothiazol‐2‐yl)naphthalene‐1‐sulfonamide] | 19.4 ± 10.5 | 3.2 | – | – | – | 3.2 | < 5 µM and 4 µM | > 100 | CME activity compared with Pitstop 2 ([1]; U2OS cells, in words): comparable; CME inhibition relative to dihydrobenzofuran 57 ([1]; U2OS cells, in words): threefold increase; NTD‐PPI activity relative to 54 ([2]; ELISA, in words): threefold less active
O=C1N=C(NS(=O)(=O)c2cccc3ccccc23)S/C1=C\c1ccc2[nH]ccc2c1 [compound 59, (Z)‐N‐(5‐((1H‐indol‐5‐yl)methylene)‐4‐oxo‐4,5‐dihydrothiazol‐2‐yl)naphthalene‐1‐sulfonamide] | – | – | 0 | 83 | – | 3.66 | – | 83.8 ± 10.7 | IC50 [2, 9]: 3.7 µM
O=C1N=C(NS(=O)(=O)c2cccc3ccccc23)S/C1=C\c1c[nH]c2ccccc12 [compound 60, (Z)‐N‐(5‐((1H‐indol‐3‐yl)methylene)‐4‐oxo‐4,5‐dihydrothiazol‐2‐yl)naphthalene‐1‐sulfonamide] | – | – | 0 | 38 | > 150 | 3.2 | – | – | –
Cn1cc(/C=C2\SC(NS(=O)(=O)c3cccc4ccccc34)=NC2=O)c2ccccc21 [compound 61, (Z)‐N‐(5‐((1‐methyl‐1H‐indol‐3‐yl)methylene)‐4‐oxo‐4,5‐dihydrothiazol‐2‐yl)naphthalene‐1‐sulfonamide] | – | – | 9 | 69 | > 150 | 3.05 | 3 µM | – | –
Cc1[nH]c2ccccc2c1/C=C1\SC(NS(=O)(=O)c2cccc3ccccc23)=NC1=O [compound 62, (Z)‐N‐(5‐((2‐methyl‐1H‐indol‐3‐yl)methylene)‐4‐oxo‐4,5‐dihydrothiazol‐2‐yl)naphthalene‐1‐sulfonamide] | – | – | 6 | 71 | > 150 | 2.37 | 2.4 µM | > 100 | –
Cc1ccc2[nH]cc(/C=C3\SC(NS(=O)(=O)c4cccc5ccccc45)=NC3=O)c2c1 [compound 63, (Z)‐N‐(5‐((5‐methyl‐1H‐indol‐3‐yl)methylene)‐4‐oxo‐4,5‐dihydrothiazol‐2‐yl)naphthalene‐1‐sulfonamide] | – | – | 6 | 68 | > 150 | 3.52 | 3.5 µM | > 100 | –
O=C1N=C(NS(=O)(=O)c2cccc3ccccc23)S/C1=C\c1c[nH]c2cc(Br)ccc12 [compound 64, (Z)‐N‐(5‐((6‐bromo‐1H‐indol‐3‐yl)methylene)‐4‐oxo‐4,5‐dihydrothiazol‐2‐yl)naphthalene‐1‐sulfonamide] | – | – | 17 | 70 | > 150 | 3.42 | 3.4 µM | > 100 | –
O=C1N=C(NS(=O)(=O)c2cccc3ccccc23)S/C1=C\c1c[nH]c2ccc(Br)cc12 [compound 65, (Z)‐N‐(5‐((5‐bromo‐1H‐indol‐3‐yl)methylene)‐4‐oxo‐4,5‐dihydrothiazol‐2‐yl)naphthalene‐1‐sulfonamide] | – | – | 0 | 64 | > 150 | 2.91 | – | > 100 | IC50 [2, 9]: 2.9 µM
O=C1N=C(NS(=O)(=O)c2cccc3ccccc23)S/C1=C\c1cn(S(=O)(=O)c2ccccc2)c2ccccc12 [compound 68, (Z)‐N‐(4‐oxo‐5‐((1‐(phenylsulfonyl)‐1H‐indol‐3‐yl)methylene)‐4,5‐dihydrothiazol‐2‐yl)naphthalene‐1‐sulfonamide] | > 100 | 27 | 8 | 59 | – | 27 | – | 99.8 ± 3.1 | IC50 [3, 5]: 99.8 ± 3.1 µM
